Data published in patent US20230027075A1, “SULFONAMIDE COMPOUNDS TARGETING CD73 AND ADENOSINE RECEPTORS” (Aurigene Discovery Technologies Limited, priority 2019, published 2023).
Counter-ions that a name gives are not always drawn.

Assays:
[1] = molecular target: T1, A2aR (Homo sapiens, UniProt P29274); experiment: A2aR biochemical assay (TR-FRET binding, Tag-lite A2aR labelled cells, fluorescent antagonist); conditions: 10 nM fluorescent A2aR antagonist; for inhibition at 20 µM: 20 μM compound, vs DMSO control, read-out: % inhibition at 20 μM (Percent inhibition data in A2aR); for IC50: four-parameter curve fit, read-out: Potency (IC50 values) of selected compounds in A2aR, group
T1 construct: expressed in transfected cells
Description: The compounds of present invention were assayed for A2aR enzyme binding activity in a TR-FRET based method. Typically, 10 μL of A2aR labelled cells in assay buffer (Tag-lite, 1×) is added to a 384-well plate containing 5 μL of a compound of present invention in final 1% DMSO, serially diluted in 1:5 in a 5-6 point titration. The aforesaid compound and cells are incubated for 30 minutes at room temperature. Next, 5 μL of A2aR antagonist (fluorescent ligand) in assay buffer is added to the plate. The final concentration of A2aR antagonist is 10 nM. Following 30 minutes reaction at room temperature, the plate was read on a plate reader (Ex: 340 nm Em: 615 nm and 665 nm) to measure the binding of test compound to A2aR cells. The results are interpreted as percentage inhibition as presented in Table-2A of binding by the test compound with respect to the DMSO control.

[2] = molecular target: T2, human-CD73 (Trp27-Lys547, His-tag) (Homo sapiens, UniProt P21589); experiment: CD73 biochemical assay (colorimetric, Malachite Green phosphate detection); conditions: 2 nM CD73, 50 μM AMP; for inhibition at 20 µM: read-out: % inhibition at 20 μM (Percent inhibition data in CD73); for IC50: four-parameter curve fit, read-out: Potency (IC50 values) of selected compounds in CD73, group
T2 construct: human-CD73 (Trp27-Lys547, His-tag); His-tag
T2 sequence (P21589 27-547): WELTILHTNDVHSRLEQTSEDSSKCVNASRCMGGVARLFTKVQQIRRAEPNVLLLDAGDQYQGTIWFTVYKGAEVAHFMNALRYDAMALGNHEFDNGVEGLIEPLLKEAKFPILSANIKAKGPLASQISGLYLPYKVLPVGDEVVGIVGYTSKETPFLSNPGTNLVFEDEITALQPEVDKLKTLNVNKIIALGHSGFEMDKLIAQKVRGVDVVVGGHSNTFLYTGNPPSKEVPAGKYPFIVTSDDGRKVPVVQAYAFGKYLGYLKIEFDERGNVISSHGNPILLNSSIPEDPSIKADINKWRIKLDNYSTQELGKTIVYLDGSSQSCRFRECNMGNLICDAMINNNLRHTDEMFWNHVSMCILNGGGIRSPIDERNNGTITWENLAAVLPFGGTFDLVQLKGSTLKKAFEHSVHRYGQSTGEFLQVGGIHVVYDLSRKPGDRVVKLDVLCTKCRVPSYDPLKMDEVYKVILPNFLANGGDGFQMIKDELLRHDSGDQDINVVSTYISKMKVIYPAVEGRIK
Description: A colorimetric-based method was used for assaying compounds of the invention for CD73 enzyme inhibitory activity. Human CD73 catalyzes the conversion of AMP to adenosine with the release of orthophosphate. A Malachite Green Phosphate Detection kit is used to measure the formation of orthophosphate product. […] A compound of the present invention and enzyme are incubated for 30 minutes at room temperature. Next, 20 μL of AMP in assay buffer is added to the plate. The final concentration of CD73 and AMP are 2 nM and 50 μM respectively. Following 30 minutes reaction at room temperature, 20 μL of Malachite reagent is added to all the reaction wells. The formation of green complex formed between Malachite Green, molybdate and free orthophosphate is measured on a plate reader (620 nm).

T1 sequence (P29274 whole entry): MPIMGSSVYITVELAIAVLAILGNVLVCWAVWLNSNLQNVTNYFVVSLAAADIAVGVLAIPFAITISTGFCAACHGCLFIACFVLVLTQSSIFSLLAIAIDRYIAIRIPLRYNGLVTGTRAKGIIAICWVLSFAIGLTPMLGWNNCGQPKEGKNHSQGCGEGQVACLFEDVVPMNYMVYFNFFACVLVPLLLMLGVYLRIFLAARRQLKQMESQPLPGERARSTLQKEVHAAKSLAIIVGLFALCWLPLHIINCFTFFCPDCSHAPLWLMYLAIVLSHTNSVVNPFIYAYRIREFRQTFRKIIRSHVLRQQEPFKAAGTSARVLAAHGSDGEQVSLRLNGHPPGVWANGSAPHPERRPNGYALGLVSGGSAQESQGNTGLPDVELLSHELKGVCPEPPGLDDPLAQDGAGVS

Row | inhibition at 20 µM [1] | inhibition at 20 µM ([2]; 20 μM compound) | IC50 [2] | IC50 [1] | % inhibition at 20 μM (Percent inhibition data in CD73) ([2]; 20 μM compound, sodium salt) | SMILES
1 | 82% | 95% | 110 to 1000 nM |  |  | CN(CCCc1ccc(NS(=O)(=O)c2cc(Cl)c(O)c(C(N)=O)c2)cc1)c1nc(N)n2nc(-c3ccco3)nc2n1 [Example A17, 5-(N-(4-(3-((7-amino-2-(furan-2-yl)-[1,2,4]triazolo[1,5-a][1,3,5]triazin-5-yl)(methyl)amino)propyl)phenyl)sulfamoyl)-3-chloro-2-hydroxybenzamide]
2 | 82% | 87% | > 1000 nM |  |  | NC(=O)c1cc(S(=O)(=O)Nc2ccc(CCCCNc3nc(N)n4nc(-c5ccco5)nc4n3)cc2)cc(Cl)c1O [Example A18, 5-(N-(4-(4-((7-amino-2-(furan-2-yl)-[1,2,4]triazolo[1,5-a][1,3,5]triazin-5-yl)amino)butyl)phenyl)sulfamoyl)-3-chloro-2-hydroxybenzamide]
3 | 83% | 96% | > 1000 nM |  |  | NC(=O)c1cc(S(=O)(=O)Nc2ccc(CCCNc3cc4nc(-c5ccco5)nn4c(N)n3)cc2)cc(Cl)c1O [Example A19, 5-(N-(4-(3-((5-amino-2-(furan-2-yl)-[1,2,4]triazolo[1,5-c]pyrimidin-7-yl)amino)propyl)phenyl)sulfamoyl)-3-chloro-2-hydroxybenzamide]
4 | 80% | 92% | < 100 nM | 25.1 to 50 nM |  | NC(=O)c1cc(S(=O)(=O)Nc2ccc(CCCNc3cc(N)n4nc(-c5ccco5)nc4n3)cc2)cc(Cl)c1O [Example A20, 5-(N-(4-(3-((7-amino-2-(furan-2-yl)-[1,2,4]triazolo[1,5-a]pyrimidin-5-yl)amino)propyl)phenyl)sulfamoyl)-3-chloro-2-hydroxybenzamide]
5 | 82% | 98% | 110 to 1000 nM |  |  | NC(=O)c1cc(S(=O)(=O)Nc2ccc(CCCOc3cc(N)n4nc(-c5ccco5)nc4n3)cc2)cc(Cl)c1O [Example A21, 5-(N-(4-(3-((7-amino-2-(furan-2-yl)-[1,2,4]triazolo[1,5-a]pyrimidin-5-yl)oxy)propyl)phenyl)sulfamoyl)-3-chloro-2-hydroxybenzamide]
6 | 81% | 95% | < 100 nM |  |  | NC(=O)c1cc(S(=O)(=O)Nc2ccc(CCCNc3cc(N)n4nc(-c5ccco5)nc4n3)c(F)c2)cc(Cl)c1O [Example A22, 5-(N-(4-(3-((7-amino-2-(furan-2-yl)-[1,2,4]triazolo[1,5-a]pyrimidin-5-yl)amino)propyl)-3-fluorophenyl)sulfamoyl)-3-chloro-2-hydroxybenzamide]
7 | 79% | 92% | < 100 nM | > 50 nM |  | NC(=O)c1cc(S(=O)(=O)Nc2ccc(CCCNc3cc(N)n4nc(-c5ccco5)cc4n3)cc2)cc(Cl)c1O [Example A24]
8 | 80% |  |  |  | 96% | NC(=O)c1cc(S(=O)(=O)Nc2ccc(CCCNc3nc(N)n4nc(-c5ccco5)nc4n3)cc2)cc(Cl)c1O [Example A26, 5-(N-(4-(3-((7-amino-2-(furan-2-yl)-[1,2,4]triazolo[1,5-a][1,3,5]triazin-5-yl)amino)propyl)phenyl)sulfamoyl)-3-chloro-2-hydroxybenzamide sodium salt]
9 | 80% | 35% |  |  |  | Nc1nc(NCCc2ccc(NS(=O)(=O)c3cc(Cl)c4c(c3)CC(=O)N4)cc2)nc2nc(-c3ccco3)nn12 [Example B1, N-(4-(2-((7-amino-2-(furan-2-yl)-[1,2,4]triazolo[1,5-a][1,3,5]triazin-5-yl)amino)ethyl)phenyl)-7-chloro-2-oxoindoline-5-sulfonamide]
10 | 79% | 39% |  |  |  | Nc1nc(NCCc2ccc(NS(=O)(=O)c3cc(Cl)c4c(c3)C(Cl)(Cl)C(=O)N4)cc2)nc2nc(-c3ccco3)nn12 [Example B2, N-(4-(2-((7-amino-2-(furan-2-yl)-[1,2,4]triazolo[1,5-a][1,3,5]triazin-5-yl)amino)ethyl)phenyl)-3,3,7-trichloro-2-oxoindoline-5-sulfonamide]
11 | 88% | 9% |  |  |  | Nc1nc(NCCc2ccc(NS(=O)(=O)c3cc(Cl)c4[nH]ccc(=O)c4c3)cc2)nc2nc(-c3ccco3)nn12 [Example B3, N-(4-(2-((7-amino-2-(furan-2-yl)-[1,2,4]triazolo[1,5-a][1,3,5]triazin-5-yl)amino)ethyl)phenyl)-8-chloro-4-oxo-1,4-dihydroquinoline-6-sulfonamide]
12 | 86% | 99% |  |  |  | Nc1nc(NCCCc2ccc(NS(=O)(=O)c3cc(Cl)c4oc(=O)[nH]c(=O)c4c3)cc2)nc2nc(-c3ccco3)nn12 [Example B4, N-(4-(3-((7-amino-2-(furan-2-yl)-[1,2,4]triazolo[1,5-a][1,3,5]triazin-5-yl)amino)propyl)phenyl)-8-chloro-2,4-dioxo-3,4-dihydro-2H-benzo[e][1,3]oxazine-6-sulfonamide]
13 | 81% | 100% | 110 to 1000 nM | < 25 nM |  | NC(=O)c1cc(S(=O)(=O)Nc2ccc(NCCNc3nc(N)n4nc(-c5ccco5)nc4n3)cc2)cc(Cl)c1O [Example C1, 5-(N-(4-((2-((7-amino-2-(furan-2-yl)-[1,2,4]triazolo[1,5-a][1,3,5]triazin-5-yl)amino)ethyl)amino)phenyl)sulfamoyl)-3-chloro-2-hydroxybenzamide]
14 | 85% | 49% | 110 to 1000 nM |  |  | NC(=O)c1cc(S(=O)(=O)Nc2ccc3ccn(CCNc4nc(N)n5nc(-c6ccco6)nc5n4)c3c2)cc(Cl)c1O [Example D1, 5-(N-(1-(2-((7-amino-2-(furan-2-yl)-[1,2,4]triazolo[1,5-a][1,3,5]triazin-5-yl)amino)ethyl)-1H-indol-6-yl)sulfamoyl)-3-chloro-2-hydroxybenzamide]
15 | 79% | 62% | > 1000 nM |  |  | NC(=O)c1cc(S(=O)(=O)Nc2cccc3c2cnn3CCNc2nc(N)n3nc(-c4ccco4)nc3n2)cc(Cl)c1O [Example D2, 5-(N-(1-(2-((7-amino-2-(furan-2-yl)-[1,2,4]triazolo[1,5-a][1,3,5]triazin-5-yl)amino)ethyl)-1H-indazol-4-yl)sulfamoyl)-3-chloro-2-hydroxybenzamide]
16 | 83% | 86% | > 1000 nM |  |  | NC(=O)c1cc(S(=O)(=O)Nc2ccc(CCNc3nc(N)n4nc(-c5ccco5)nc4n3)nc2)cc(Cl)c1O [Example E1, 5-(N-(6-(2-((7-amino-2-(furan-2-yl)-[1,2,4]triazolo[1,5-a][1,3,5]triazin-5-yl)amino)ethyl)pyridin-3-yl)sulfamoyl)-3-chloro-2-hydroxybenzamide]
17 | 85% | 94% | 110 to 1000 nM |  |  | NC(=O)c1cc(S(=O)(=O)Nc2ccc(CCNc3cc(N)n4nc(-c5ccco5)nc4n3)nc2)cc(Cl)c1O [Example E2, 5-(N-(6-(2-((7-amino-2-(furan-2-yl)-[1,2,4]triazolo[1,5-a]pyrimidin-5-yl)amino)ethyl)pyridin-3-yl)sulfamoyl)-3-chloro-2-hydroxybenzamide]

Row | SMILES | inhibition at 20 µM [1] | inhibition at 20 µM ([2]; 20 μM compound) | IC50 [2] | IC50 [1] | % inhibition at 20 μM (Percent inhibition data in CD73) ([2]; 20 μM compound, sodium salt)
18 | COC(=O)[C@@H](NC(=O)Oc1c(Cl)cc(S(=O)(=O)Nc2ccc(CCCNc3nc(N)n4nc(-c5ccco5)nc4n3)cc2)cc1C(N)=O)C(C)C [Example A25, Methyl ((4-(N-(4-(3-((7-amino-2-(furan-2-yl)-[1,2,4]triazolo[1,5-a][1,3,5]triazin-5-yl)amino)propyl)phenyl)sulfamoyl)-2-carbamoyl-6-chlorophenoxy)carbonyl)valinate] | 81% | 99% | < 100 nM |  | 
